Assay results reported in patent publication US20230079100A1, “PROCESS FOR PREPARING SOLID FORMULATIONS COMPRISING A HYDROPHOBIC COMPOUND DISPERSIBLE IN A COLD LIQUID AND RELATIVE SOLID FORMULATIONS” (NUTRILINEA S.R.L., priority 2020, published 2023).

Assays:
[1] = Static contact angle of ultrapure water on sample pelleted or deposited as film (Krüss Easy Drop); format: physicochemical; conditions: 8 μL milliQ water drop, mean with standard deviation, 0 = complete wettability; for Contact angle on pellet: pelleted sample; for Contact angle on film (°): sample deposited as film
Procedure: 1.4 Contact angle measurements on hydrophobic substrates treated according to the process of the present invention (see section 1 of the experimental part).
The experimental measurements reported hereinafter relate to the study of the wettability characteristics of powdered samples before and after the process according to the present invention. The determination of the static contact angle of ultrapure water (also referred to as grade 1) was carried out on the surface of the sample pelleted or deposited in the form of film, according to methods known in the state of the art and as reported in [1] Nowak et al. Powder Technology 233 (2013) 52-64, e in [2] Bachmann and McHale, European Journal of Soil Science, 60 (2009) 420-430. The determinations were carried out using a Krüss Easy Drop instrument using drops of 8 μL of milliQ water. The behaviour of the drop in the first seconds from the deposition was analysed by recording 30-second video at 25 fps (frames per second): the contact angle considered is the equilibrium value or the final one at the end of the recording. Each sample was analysed both deposited in the form of film and pelleted and at least 3 independent contact angle determinations were carried out for each sample.
5 different types of powders were analysed; each of them was analysed both in the unmodified form thereof (as such) and after the process according to the present invention. In the case of the PEA (Palmitoylethanolamide) powder, a second batch of sample was analysed, for which only measurements on film were carried out. The results of the determinations are reported in Table IV: the mean contact angle value with standard deviation relative to the measurements on pellet and on film are reported. In case of complete wettability of the sample, an angle of 0° is reported. Overall, a greater correspondence of the wettability data measured on film with the dispersibility data observed experimentally (visual observation) is observed. This observation is in good agreement with the literature; the less representativeness of the measurements on pellets can be linked in some cases to absorption phenomena linked to the porosity of the pellet or to alterations of the surface free energy of the powder during pelletisation due to the applied pressure.

[2] = Visual evaluation of the degree of wettability of solid formulations poured into water; format: physicochemical; conditions: for Visual degree of wettability of the solid formulation: process of the invention, fluid bed, 1.5 g in 100 ml water at room temperature
[3] = comparison process (A) dry mixing in a cube (1 kg), charging agent maltodextrin, 50%/50%
[4] = comparison process (A) dry mixing in a cube (1 kg), charging agent maltodextrin, 70%/30%
[5] = comparison process (A) dry mixing in a cube (1 kg), charging agent mannitol, 50%/50%
[6] = comparison process (A) dry mixing in a cube (1 kg), charging agent mannitol, 70%/30%
[7] = comparison process (A) dry mixing in a cube (1 kg), charging agent sugar, active/charging agent 50%/50%
[8] = comparison process (A) dry mixing in a cube (1 kg), charging agent sugar, active/charging agent 70%/30%
[9] = comparison process (B) wet granulations (1.5 kg), charging agent maltodextrin, 50%/50%
[10] = comparison process (B) wet granulations (1.5 kg), charging agent maltodextrin, 70%/30%
[11] = comparison process (B) wet granulations (1.5 kg), charging agent mannitol, 50%/50%
[12] = comparison process (B) wet granulations (1.5 kg), charging agent mannitol, 70%/30%
[13] = comparison process (B) wet granulations (1.5 kg), charging agent sugar, 50%/50%
[14] = comparison process (B) wet granulations (1.5 kg), charging agent sugar, 70%/30%
[15] = comparison process (C) wet granulation in a fluid bed granulator (1.5 kg), atomised water about 300-400 g, charging agent maltodextrin, 50%/50%
[16] = comparison process (C) wet granulation in a fluid bed granulator (1.5 kg), atomised water about 300-400 g, charging agent maltodextrin, 70%/30%
[17] = comparison process (C) wet granulation in a fluid bed granulator (1.5 kg), atomised water about 300-400 g, charging agent sugar, 50%/50%
[18] = comparison process (C) wet granulation in a fluid bed granulator (1.5 kg), atomised water about 300-400 g, charging agent sugar, 70%/30%
[19] = comparison process (C) wet granulation in a fluid bed granulator, atomised water about 300-400 g, charging agent mannitol, 50%/50%
[20] = comparison process (C) wet granulation in a fluid bed granulator, atomised water about 300-400 g, charging agent mannitol, 70%/30%
[21] = comparison process (D.a) granulation in a powder kneader (1 kg), active 90% w/w + liquid polysorbate 80 pure 10% w/w
[22] = comparison process (D.b) mixing in a cube (1 kg), active 90% w/w + powder sucrester 10% w/w
[23] = comparison process (E) wet granulation in a fluid bed granulator, active 90% + aqueous solution of polysorbate 80 at 10% w/w, 10%
[24] = solid substrate 90% w/w (900 g) + liquid polysorbate 80 pure at 100% 10% w/w (100 g)
[25] = solid substrate 93% w/w (930 g) + liquid polysorbate 80 pure at 100% 7% w/w (70 g)
[26] = solid substrate 95% w/w (950 g) + liquid polysorbate 80 pure at 100% 5% w/w (50 g)

| Molecule | Contact angle on pellet [1] [°] | Visual degree of wettability of the active component [2, 3] | Visual degree of wettability of the active component [2, 4] | Visual degree of wettability of the active component [2, 5] | Visual degree of wettability of the active component [2, 6] | Visual degree of wettability of the active component [2, 7] | Visual degree of wettability of the active component [2, 8] | Visual degree of wettability of the active component [2, 9] | Visual degree of wettability of the active component [2, 10] | Visual degree of wettability of the active component [2, 11] | Visual degree of wettability of the active component [2, 12] | Visual degree of wettability of the active component [2, 13] | Visual degree of wettability of the active component [2, 14] | Visual degree of wettability of the active component [2, 15] | Visual degree of wettability of the active component [2, 16] | Visual degree of wettability of the active component [2, 17] | Visual degree of wettability of the active component [2, 18] | Visual degree of wettability of the active component [2, 19] | Visual degree of wettability of the active component [2, 20] | Visual degree of wettability of the active component [2, 21] | other results |
| --- | --- | --- | --- | --- | --- | --- | --- | --- | --- | --- | --- | --- | --- | --- | --- | --- | --- | --- | --- | --- | --- |
| alpha-lactalbumin | 61 ± 6 | Nil | Nil | Nil | Nil | Nil | Nil | Nil/low | Nil/low | Nil/low | Nil/low | Nil/low | Nil/low | Low/Sufficient | Low | Low/Sufficient | Low | Low/Sufficient | Low | Low/Sufficient | Contact angle on film (°) [1]: 69 ± 3 °; Visual degree of wettability of the active component [2, 22]: Nil; Visual degree of wettability of the active component [2, 23]: Low/Sufficient; Visual degree of wettability of the solid formulation [2, 24]: Excellent; Visual degree of wettability of the solid formulation [2, 25]: Fair; Visual degree of wettability of the solid formulation [2, 26]: Fair |
| CCCCCCCCCCCCCCCC(=O)NCCO [PEA, Palmitoylethanolamide] | 72 ± 4 | Nil | Nil | Nil | Nil | Nil | Nil | Nil/low | Nil/low | Nil/low | Nil/low | Nil/low | Nil/low | Low/Sufficient | Low | Low/Sufficient | Low | Low/Sufficient | Low | Low/Sufficient | Contact angle on film (°) ([1]; listed as PEA as such): 117 ± 7 °; Contact angle on film (°) ([1]; listed as PEA as such second batch): 114 ± 5 °; Visual degree of wettability of the active component [2, 22]: Nil; Visual degree of wettability of the active component [2, 23]: Low/Sufficient; Visual degree of wettability of the solid formulation [2, 24]: Excellent; Visual degree of wettability of the solid formulation [2, 25]: Fair; Visual degree of wettability of the solid formulation [2, 26]: Fair |
